Assay results published in patent US9708314B2, “Heterocyclic amide compound” (NISSAN CHEMICAL INDUSTRIES, LTD., priority 2013, dated 2017).

Legend:
Type in all cases: in vivo
[1] = tested on: Cyperus difformis; assay: Test Example 3: herbicidal effect by application to foliage (Wagner pot, water depth 0.1-0.5 cm); settings: Nineteenth Table; for E (herbicidal effect grade): application to foliage
Method in brief: (§1)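 Grading uses six bands of herbicidal ratio, from 0 (≤5%, almost no effect) to 5 (≥90%, almost completely withered). Treatment was a stem-and-leaf spray of diluted emulsion at a fixed g/ha on 14-day-old plants; evaluation after three weeks.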

[2] = tested on: Echinochloa crus-galli var. crus-galli; assay: as above; settings: Nineteenth Table; for H (herbicidal effect grade): application to foliage
Method in brief: as §1

[3] = tested on: Leptochloa chinensis; assay: as above; settings: Nineteenth Table; for D (herbicidal effect grade): application to foliage
Method in brief: as §1

[4] = tested on: Abutilon theophrasti; assay: Test Example 4: herbicidal effect by application to foliage (diluvial soil, plastic box); settings: for M: Application herbicide amount 320 g/ha; for M (Abutilon theophrasti) herbicidal effect: application to foliage, application herbicide amount 320 g/ha
Method in brief: (§2)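 Emulsion-formulated compound, diluted to a predetermined g/ha dose, applied by small sprayer to leaves and stems of 14-day-old seedlings grown in sterilized diluvial soil. Effect rated on 0–5 herbicidal-ratio scale three weeks on.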

[5] = tested on: Alopecurus myosuroides; assay: as above; settings: for J: Application herbicide amount 320 g/ha; for J (Alopecurus myosuroides) herbicidal effect: application to foliage, application herbicide amount 320 g/ha
Method in brief: as §2

[6] = tested on: Apera spica-venti.; assay: as above; settings: for L: Application herbicide amount 320 g/ha; for L (Apera spica-venti.) herbicidal effect: application to foliage, application herbicide amount 320 g/ha
Method in brief: as §2

[7] = tested on: Avena fatua; assay: as above; settings: for I: Application herbicide amount 320 g/ha; for I (Avena fatua) herbicidal effect: application to foliage, application herbicide amount 320 g/ha
Method in brief: as §2

[8] = tested on: Chenopodium album; assay: as above; settings: for O: Application herbicide amount 320 g/ha; for O (Chenopodium album) herbicidal effect: application to foliage, application herbicide amount 320 g/ha
Method in brief: as §2

[9] = tested on: Digitaria ciliaris; assay: as above; settings: for F: Application herbicide amount 320 g/ha; for F (Digitaria ciliaris) herbicidal effect: application to foliage, application herbicide amount 320 g/ha
Method in brief: as §2

[10] = tested on: Echinochloa crus-galli var. crus-galli; assay: as above; settings: for H: Application herbicide amount 320 g/ha; for H (Echinochloa crus-galli var. crus-galli) herbicidal effect: application to foliage, application herbicide amount 320 g/ha
Method in brief: as §2

[11] = tested on: Galium spurium; assay: as above; settings: for Q: Application herbicide amount 320 g/ha; for Q (Galium spurium) herbicidal effect: application to foliage, application herbicide amount 320 g/ha
Method in brief: as §2

[12] = tested on: Lolium multiflorum Lam.; assay: as above; settings: for K: Application herbicide amount 320 g/ha; for K (Lolium multiflorum Lam.) herbicidal effect: application to foliage, application herbicide amount 320 g/ha
Method in brief: as §2

[13] = tested on: Setaria viridis; assay: as above; settings: for G: Application herbicide amount 320 g/ha; for G (Setaria viridis) herbicidal effect: application to foliage, application herbicide amount 320 g/ha
Method in brief: as §2

[14] = tested on: Veronica persica; assay: as above; settings: for R: Application herbicide amount 320 g/ha; for R (Veronica persica) herbicidal effect: application to foliage, application herbicide amount 320 g/ha
Method in brief: as §2

[15] = application herbicide amount 320 g/ha
[16] = application herbicide amount 400 g/ha

| SMILES | E (herbicidal effect grade) [1, 15] | H (herbicidal effect grade) [2, 15] | D (herbicidal effect grade) [3, 15] | M [4] | J [5] | L [6] | E (Cyperus difformis) herbicidal ratio grade [1, 15] | H (Echinochloa crus-galli var. crus-galli) herbicidal ratio grade [2, 15] | D (Leptochloa chinensis) herbicidal ratio grade [3, 15] | M (Abutilon theophrasti) herbicidal effect [4] | J (Alopecurus myosuroides) herbicidal effect [5] | L (Apera spica-venti.) herbicidal effect [6] | I (Avena fatua) herbicidal effect [7] | O (Chenopodium album) herbicidal effect [8] | F (Digitaria ciliaris) herbicidal effect [9] | H (Echinochloa crus-galli var. crus-galli) herbicidal effect [10] | Q (Galium spurium) herbicidal effect [11] | K (Lolium multiflorum Lam.) herbicidal effect [12] | G (Setaria viridis) herbicidal effect [13] | R (Veronica persica) herbicidal effect [14] | also measured |
| --- | --- | --- | --- | --- | --- | --- | --- | --- | --- | --- | --- | --- | --- | --- | --- | --- | --- | --- | --- | --- | --- |
| Cc1nnc(NC(=O)c2ccc(C(F)(F)F)n3c(-c4cccs4)nnc23)o1 [1-057] | 5 (Herbicidal ratio of 90% or more (almost completely withered)) | 5 (Herbicidal ratio of 90% or more (almost completely withered)) | 5 (Herbicidal ratio of 90% or more (almost completely withered)) | 5 (Herbicidal ratio of 90% or more (almost completely withered)) | 2 (Herbicidal ratio of 20% or more and less than 40%) | 2 (Herbicidal ratio of 20% or more and less than 40%) | – | – | – | – | – | – | – | – | – | – | – | – | – | – | I [7]: 3 (Herbicidal ratio of 40% or more and less than 70%); O [8]: 5 (Herbicidal ratio of 90% or more (almost completely withered)); F [9]: 4 (Herbicidal ratio of 70% or more and less than 90%); H [10]: 4 (Herbicidal ratio of 70% or more and less than 90%); Q [11]: 1 (Herbicidal ratio of 5% or more and less than 20%); K [12]: 2 (Herbicidal ratio of 20% or more and less than 40%); G [13]: 4 (Herbicidal ratio of 70% or more and less than 90%); R [14]: 5 (Herbicidal ratio of 90% or more (almost completely withered)) |
| CSc1nnc2c(C(=O)Nc3nnc(C)o3)ccc(C(F)(F)F)n12 [1-018, N-(5-Methyl-1,3,4-oxadiazol-2-yl)-3-(methylthio)-5-(trifluoromethyl)-[1,2,4]triazol o[4,3-a]pyridine-8-carboxamide] | – | – | – | – | – | – | 4 (Herbicidal ratio of 70% or more and less than 90%) | 4 (Herbicidal ratio of 70% or more and less than 90%) | 4 (Herbicidal ratio of 70% or more and less than 90%) | 3 (Herbicidal ratio of 40% or more and less than 70%) | 0 (Herbicidal ratio of 5% or less (almost no effect)) | 0 (Herbicidal ratio of 5% or less (almost no effect)) | 0 (Herbicidal ratio of 5% or less (almost no effect)) | 5 (Herbicidal ratio of 90% or more (almost completely withered)) | 0 (Herbicidal ratio of 5% or less (almost no effect)) | 1 (Herbicidal ratio of 5% or more and less than 20%) | 0 (Herbicidal ratio of 5% or less (almost no effect)) | 0 (Herbicidal ratio of 5% or less (almost no effect)) | 2 (Herbicidal ratio of 20% or more and less than 40%) | 4 (Herbicidal ratio of 70% or more and less than 90%) | – |
| COCCOCc1nnc2c(C(=O)Nc3nnc(C)o3)ccc(C(F)(F)F)n12 [1-019] | – | – | – | – | – | – | 5 (Herbicidal ratio of 90% or more (almost completely withered)) | 5 (Herbicidal ratio of 90% or more (almost completely withered)) | 5 (Herbicidal ratio of 90% or more (almost completely withered)) | 4 (Herbicidal ratio of 70% or more and less than 90%) | 2 (Herbicidal ratio of 20% or more and less than 40%) | 4 (Herbicidal ratio of 70% or more and less than 90%) | 3 (Herbicidal ratio of 40% or more and less than 70%) | 5 (Herbicidal ratio of 90% or more (almost completely withered)) | 5 (Herbicidal ratio of 90% or more (almost completely withered)) | 5 (Herbicidal ratio of 90% or more (almost completely withered)) | 4 (Herbicidal ratio of 70% or more and less than 90%) | 2 (Herbicidal ratio of 20% or more and less than 40%) | 4 (Herbicidal ratio of 70% or more and less than 90%) | 4 (Herbicidal ratio of 70% or more and less than 90%) | – |
| CCSc1nnc2c(C(=O)Nc3nnc(C)o3)ccc(C(F)(F)F)n12 [1-032] | – | – | – | – | – | – | 5 (Herbicidal ratio of 90% or more (almost completely withered)) | 5 (Herbicidal ratio of 90% or more (almost completely withered)) | 5 (Herbicidal ratio of 90% or more (almost completely withered)) | 5 (Herbicidal ratio of 90% or more (almost completely withered)) | 1 (Herbicidal ratio of 5% or more and less than 20%) | 2 (Herbicidal ratio of 20% or more and less than 40%) | 2 (Herbicidal ratio of 20% or more and less than 40%) | 5 (Herbicidal ratio of 90% or more (almost completely withered)) | 5 (Herbicidal ratio of 90% or more (almost completely withered)) | 5 (Herbicidal ratio of 90% or more (almost completely withered)) | 2 (Herbicidal ratio of 20% or more and less than 40%) | 1 (Herbicidal ratio of 5% or more and less than 20%) | 5 (Herbicidal ratio of 90% or more (almost completely withered)) | 4 (Herbicidal ratio of 70% or more and less than 90%) | – |
| CC(C)c1nnc2c(C(=O)Nc3nnc(C(F)(F)F)o3)ccc(C(F)(F)F)n12 [1-100] | 4 (Herbicidal ratio of 70% or more and less than 90%) | 5 (Herbicidal ratio of 90% or more (almost completely withered)) | 5 (Herbicidal ratio of 90% or more (almost completely withered)) | 3 (Herbicidal ratio of 40% or more and less than 70%) | 0 (Herbicidal ratio of 5% or less (almost no effect)) | 0 (Herbicidal ratio of 5% or less (almost no effect)) | – | – | – | – | – | – | – | – | – | – | – | – | – | – | I [7]: 1 (Herbicidal ratio of 5% or more and less than 20%); O [8]: 5 (Herbicidal ratio of 90% or more (almost completely withered)); F [9]: 3 (Herbicidal ratio of 40% or more and less than 70%); H [10]: 4 (Herbicidal ratio of 70% or more and less than 90%); Q [11]: 0 (Herbicidal ratio of 5% or less (almost no effect)); K [12]: 0 (Herbicidal ratio of 5% or less (almost no effect)); G [13]: 1 (Herbicidal ratio of 5% or more and less than 20%); R [14]: 1 (Herbicidal ratio of 5% or more and less than 20%) |
| Cc1nnc(NC(=O)c2ccc(C(F)(F)F)n3c(C(C)C)nnc23)o1 [1-004, 3-Isopropyl-N-(5-methyl-1,3,4-oxadiazol-2-yl)-5-(trifluoromethyl)-[1,2,4]triazolo[4,3-a]pyridine-8-carboxamide] | – | – | – | – | – | – | – | – | – | 4 (Herbicidal ratio of 70% or more and less than 90%) | 2 (Herbicidal ratio of 20% or more and less than 40%) | 3 (Herbicidal ratio of 40% or more and less than 70%) | 2 (Herbicidal ratio of 20% or more and less than 40%) | 5 (Herbicidal ratio of 90% or more (almost completely withered)) | 5 (Herbicidal ratio of 90% or more (almost completely withered)) | 5 (Herbicidal ratio of 90% or more (almost completely withered)) | 1 (Herbicidal ratio of 5% or more and less than 20%) | 2 (Herbicidal ratio of 20% or more and less than 40%) | 4 (Herbicidal ratio of 70% or more and less than 90%) | 4 (Herbicidal ratio of 70% or more and less than 90%) | E (Cyperus difformis) herbicidal ratio grade [1, 16]: 5 (Herbicidal ratio of 90% or more (almost completely withered)); H (Echinochloa crus-galli var. crus-galli) herbicidal ratio grade [2, 16]: 4 (Herbicidal ratio of 70% or more and less than 90%); D (Leptochloa chinensis) herbicidal ratio grade [3, 16]: 5 (Herbicidal ratio of 90% or more (almost completely withered)) |
